From patent US9862702B2, “Processes for the preparation of pesticidal compounds” (Dow AgroSciences LLC, priority 2013, dated 2018)
Structures can show the parent of a compound that is named as a salt. Each block holds one compound with its values, some of them ahead of it.

Assays:
[1] = test system: Green Peach Aphid ("GPA") (Myzus persicae) (MYZUPE); assay: Bioassays on Green Peach Aphid (GPA), foliar spray on infested cabbage seedlings; type: in vivo; conditions: 72 h, 200 ppm test solution sprayed on cabbage leaves until runoff, live aphids counted after three days at about 25° C., read-out: MYZUPE rating (% Control of Mortality, Abbott-corrected)
Source text: Example A Bioassays on Green Peach Aphid (“GPA”) (Myzus persicae) (MYZUPE.)
GPA is the most significant aphid pest of peach trees, causing decreased growth, shriveling of leaves, and the death of various tissues. It is also hazardous because it acts as a vector for the transport of plant viruses, such as potato virus Y and potato leafroll virus to members of the nightshade/potato family Solanaceae, and various mosaic viruses to many other food crops. GPA attacks such plants as broccoli, burdock, cabbage, carrot, cauliflower, daikon, eggplant, green beans, lettuce, macadamia, papaya, peppers, sweet potatoes, tomatoes, watercress and zucchini among other plants. GPA also attacks many ornamental crops such as carnations, chrysanthemum, flowering white cabbage, poinsettia and roses. GPA has developed resistance to many pesticides.
Several molecules disclosed herein were tested against GPA using procedures described below.
Cabbage seedling grown in 3-in pots, with 2-3 small (3-5 cm) true leaves, were used as test substrate. The seedlings were infested with […] (wingless adult and nymph stages) one day prior to chemical application. Four posts with individual seedlings were used for each treatment. Test compounds (2 mg) were dissolved in 2 mL of acetone/methanol (1:1) solvent, forming stock solutions of 1000 ppm test compound. The stock solutions were diluted 5× with 0.025% Tween 20 in water to obtain the solution at 200 ppm test compound. A hand-held aspirator-type sprayer was used for spraying a solution to both sides of the cabbage leaves until runoff. Reference plants (solvent check) were sprayed with the diluent only containing 20% by volume acetone/methanol (1:1) solvent. Treated plants were held in a holding room for three days at approximately 25° C. and ambient relative humidity (RH) prior to grading. Evaluation was conducted by counting the number of live aphids per plant under a microscope. Percent Control was measured by using Abbott's correction formula (W. S. Abbott, “A Method of Computing the Effectiveness of an Insecticide” J. Econ. Entomol 18 (1925), pp. 265-267) as follows. Corrected % Control=100*(X−Y)/X • where • X=No. of live aphids on solvent check plants and • Y=No. of live aphids on treated plants
The results are indicated in the table entitled “Table 1: GPA (MYZUPE) and sweetpotato whitefly-crawler (BEMITA) Rating Table”.

[2] = test system: Sweetpotato Whitefly Crawler (Bemisia tabaci) (BEMITA); assay: Bioassays on Sweetpotato Whitefly Crawler, foliar spray on infested cotton plants; type: in vivo; conditions: 200 ppm test solution sprayed on cotton leaves until runoff, live nymphs counted after 8-9 days at 82° F., 50% RH, read-out: BEMITA rating (% Control of Mortality, Abbott-corrected)
Source text: Example B Bioassays on Sweetpotato Whitefly Crawler (Bemisia tabaci) (BEMITA.)
The sweetpotato whitefly, Bemisia tabaci (Gennadius), has been recorded in the United States since the late 1800s. In 1986 in Florida, Bemisia tabaci became an extreme economic pest. Whiteflies usually feed on the lower surface of their host plant leaves. From the egg hatches a minute crawler stage that moves about the leaf until it inserts its microscopic, threadlike mouthparts to feed by sucking sap from the phloem. Adults and nymphs excrete honeydew (largely plant sugars from feeding on phloem), a sticky, viscous liquid in which dark sooty molds grow. Heavy infestations of adults and their progeny can cause seedling death, or reduction in vigor and yield of older plants, due simply to sap removal. The honeydew can stick cotton lint together, making it more difficult to gin and therefore reducing its value. Sooty mold grows on honeydew-covered substrates, obscuring the leaf and reducing photosynthesis, and reducing fruit quality grade. It transmitted plant-pathogenic viruses that had never affected cultivated crops and induced plant physiological disorders, such as tomato irregular ripening and squash silverleaf disorder. Whiteflies are resistant to many formerly effective pesticides.
Cotton plants grown in 3-inch pots, with 1 small (3-5 cm) true leaf, were used at test substrate. The plants were placed in a room with whitefly adults. Adults were allowed to deposit eggs for 2-3 days. After a 2-3 day egg-laying period, plants were taken from the adult whitefly room. Adults were blown off leaves using a hand-held Devilbliss sprayer (23 psi). Plants with egg infestation (100-300 eggs per plant) were placed in a holding room for 5-6 days at 82° F. and 50% RH for egg hatch and crawler stage to develop. Four cotton plants were used for each treatment. Compounds (2 mg) were dissolved in 1 mL of acetone solvent, forming stock solutions of 2000 ppm. The stock solutions were diluted 10× with 0.025% Tween 20 in water to obtain a test solution at 200 ppm. A hand-held Devilbliss sprayer was used for spraying a solution to both sides of cotton leaf until runoff. Reference plants (solvent check) were sprayed with the diluent only. Treated plants were held in a holding room for 8-9 days at approximately 82° F. and 50% RH prior to grading. Evaluation was conducted by counting the number of live nymphs per plant under a microscope.

- melting point: 141 to 143 °C
SMILES: O=[N+]([O-])c1cn(-c2cccnc2)nc1Cl [Compound 5c, 3-(3-Chloro-4-nitro-1H-pyrazol-1-yl)pyridine]

SMILES: O=C(O)/C=N/Nc1cccnc1 [Compound 6a, (E)-2-((2-Pyridin-3-yl)hydrazono)acetic Acid Hydrochloride]
- mortality at 200 ppm [1]: 0 to 80%
- mortality at 200 ppm [2]: 0 to 80%

SMILES: N#CC1CC(Cl)=NN1c1cccnc1 (stereo not drawn) [Compound 6b, 3-Chloro-1-(pyridine-3-yl)-4,5-dihydro-1H-pyrazole-5-carbonitrile]
- mortality at 200 ppm [1]: 0 to 80%
- mortality at 200 ppm [2]: < 0%

SMILES: COC(=O)C1CC(Cl)=NN1c1cccnc1 (stereo not drawn) [Compound 6c, Methyl 3-chloro-1-(pyridin-3-yl)-4,5-dihydro-1H-pyrazole-5-carboxylate]
- mortality at 200 ppm [1]: 0 to 80%
- mortality at 200 ppm [2]: 80 to 100%

SMILES: COC(=O)c1cc(Cl)nn1-c1cccnc1 [Compound 6d, Methyl 3-chloro-1-(pyridin-3-yl)-1H-pyrazole-5-carboxylate]
- mortality at 200 ppm [1]: 0 to 80%
- mortality at 200 ppm [2]: < 0%

SMILES: O=C(O)c1cc(Cl)nn1-c1cccnc1 [Compound 6e, 3-Chloro-1-(pyridine-3-yl)-1H-pyrazole-5-carboxylic Acid Hydrochloride]
- mortality at 200 ppm [1]: 0 to 80%
- mortality at 200 ppm [2]: < 0%

SMILES: CCOC(=O)C1CC(=O)NN1c1cccnc1 (stereo not drawn) [Compound 18.6, Ethyl 5-oxo-2-(pyridin-3-yl)pyrazolidine-3-carboxylate]
- mortality at 200 ppm [1]: 0 to 80%
- mortality at 200 ppm [2]: 0 to 80%

SMILES: CCOC(=O)C1CC(Cl)=NN1c1cccnc1 (stereo not drawn) [Compound 19.6, Ethyl 3-chloro-1-(pyridin-3-yl)-4,5-dihydro-1H-pyrazole-5-carboxylate]
- mortality at 200 ppm [1]: 0 to 80%
- mortality at 200 ppm [2]: 0 to 80%
